From US4082736A, “Novel immunological adjuvant compounds and methods of preparation thereof” (Syntex (U.S.A.) Inc., priority 1976, dated 1978)

How the values were obtained:
guinea pig [1] = assay: Delayed hypersensitivity skin test to arsanilic tyrosine after immunisation with antigen mixture plus test compound in FIA; format: in vivo; settings: s.c. in FIA emulsion, skin test day 14, read at 24 hours, relative to FIA = 1
Method: (§1) The antigen mixture used consists of 20 μg. of arsanilic tyrosine and 100 μg. of protein [either bovine serum albumin (BSA) or ovalbumin]. The antigen mixture and the compounds to be tested, at the dose levels per guinea pig shown in the Table below, are dissolved in saline and emulsified with an equal volume of Freund's Incomplete Adjuvant (FIA). Groups of ten guinea pigs are used for each test compound and each guinea pig is injected with 0.1 ml. of the above emulsion, subcutaneously, in the nuchal region. Control groups are given the antigen mixture alone emulsified with FIA.
After 14 days, all animals are skin tested using 25 μg arsanilic tyrosine conjugated to either BSA or ovalbumin (BSA is used in this test when ovalbumin is present in the antigen mixture and vice versa) which is given in 0.1 ml saline intradermally in the flanks of the animals. The potencies of the test compounds in stimulating the delayed hypersensitivity reaction are then computed by multiplying the average area of the skin reaction at 24 hours by a number from 1 to 3 which is a measure of the amount of infiltration observed in each skin reaction. Thus, the procedure is as follows: skin tests with a high degree of infiltration are scored as ++ and assigned the number 3; those with a lesser degree are scored as + and given the number 2, whereas skin reactions with no infiltration are scored as zero and assigned the number 1. These numbers are then totaled for the animals in a group and the average number obtained is then multiplied by the average area of the observed skin reaction. There is thus included in the potencies the amount of infiltration coupled with the average area observed in the skin test.

guinea pig [2] = assay: Antibody titre (antibovine serum albumin or antiovalbumin) in sera by passive hemagglutination or Farr radioimmune assay; format: in vivo; settings: s.c. in FIA emulsion, sera of day 42, relative to FIA = 1
Method: as §1
On day 42 all animals are bled by cardiac puncture and the sera assayed for antibovine serum albumin or antiovalbumin antibodies by the passive hemagglutination technique or by radioimmune assay using the Farr technique (P. Minden and R. S. Farr in "Handbook of Experimental Immunology", edited by D. M. Weir, Chapter 15, Volume 1, Blackwell Scientific Publications, Oxford) using ^125 iodine labeled bovine serum albumin. Average potencies of these assays are presented in Column 2 of the Table below relative to FIA having the value of one.

SMILES | Average Potency, Delayed Hypersensitivity to Arsanilic Tyrosine (guinea pig [1]; dose 50 μg per guinea pig) | Average Potency, Antibody Titre (guinea pig [2]; dose 50 μg per guinea pig) | Average Potency, Delayed Hypersensitivity to Arsanilic Tyrosine (guinea pig [1]; dose 20 μg per guinea pig) | Average Potency, Antibody Titre (guinea pig [2]; dose 20 μg per guinea pig)
CC(=O)N[C@H]1C(O)O[C@H](CO)[C@@H](O)[C@@H]1O[C@H](C)C(=O)N[C@@H](C)C(=O)N[C@H](CCC(=O)O)C(N)=O (stereo partly drawn) [2-(2-acetamido-2-deoxy-D-glucos-3-O-yl)-D-propionyl-L-alanyl-D-isoglutamine, reference compound] | 3.3 | 3.7 |  | 
CC(=O)N[C@H]1C(O)O[C@H](CO)[C@@H](O)[C@@H]1O[C@H](C)C(=O)N[C@@H](CC(C)C)C(=O)N[C@H](CCC(=O)O)C(N)=O (stereo partly drawn) [2-(2-acetamido-2-deoxy-D-glucos-3-O-yl)-D-propionyl-L-leucyl-D-isoglutamine] | 7.5 | 5.3 |  | 
CC(=O)N[C@H]1C(O)O[C@H](CO)[C@@H](O)[C@@H]1O[C@H](C)C(=O)N[C@@H](CCCCN)C(=O)N[C@H](CCC(=O)O)C(N)=O (stereo partly drawn) [2-(2-acetamido-2-deoxy-D-glucos-3-O-yl)-D-propionyl-L-lysyl-D-isoglutamine] |  |  | 0.9 | 1.2
CC(=O)N[C@H]1C(O)O[C@H](CO)[C@@H](O)[C@@H]1O[C@H](C)C(=O)N[C@@H](Cc1ccccc1)C(=O)N[C@H](CCC(=O)O)C(N)=O (stereo partly drawn) [2-(2-acetamido-2-deoxy-D-glucos-3-O-yl)-D-propionyl-L-phenylalanyl-D-isoglutamine] | 7.2 | 7.1 |  | 
CC(=O)N[C@H]1C(O)O[C@H](CO)[C@@H](O)[C@@H]1O[C@H](C)C(=O)N1CCC[C@H]1C(=O)N[C@H](CCC(=O)O)C(N)=O (stereo partly drawn) [2-(2-acetamido-2-deoxy-D-glucos-3-O-yl)-D-propionyl-L-prolyl-D-isoglutamine] | 6.6 | 7.0 |  | 
CC(=O)N[C@H]1C(O)O[C@H](CO)[C@@H](O)[C@@H]1O[C@H](C)C(=O)N[C@@H](Cc1ccc(O)cc1)C(=O)N[C@H](CCC(=O)O)C(N)=O (stereo partly drawn) [2-(2-acetamido-2-deoxy-D-glucos-3-O-yl)-D-propionyl-L-tyrosyl-D-isoglutamine] |  |  | 6.5 | 2.3
CC(=O)N[C@H]1C(O)O[C@H](CO)[C@@H](O)[C@@H]1O[C@H](C)C(=O)N[C@H](C(=O)N[C@H](CCC(=O)O)C(N)=O)C(C)C (stereo partly drawn) [2-(2-acetamido-2-deoxy-D-glucos-3-O-yl)-D-propionyl-L-valyl-D-isoglutamine] | 7.1 | 4.0 |  | 
